Article PMC5224920, “Assessing the mechanism and therapeutic potential of modulators of the human Mediator complex-associated protein kinases” (eLife, 2016)

Test system: 12 single or co-culture in vitro tissue models of primary cells
Experiment: Culture/co-culture cell model panel, extracellular biomarkers (DiscoveRx); for CCL2/MCP-1: reference of the scale not given here; for CD141/Thrombomodulin: reference of the scale not given here; for CD142/Tissue Factor: reference of the scale not given here; for CXCL8/IL-8: reference of the scale not given here; for CXCL9/MIG: reference of the scale not given here; for M-CSF: reference of the scale not given here; for SRB: reference of the scale not given here
Assay type: cell-based, human
[1] = /HDFNo unstimulated fibroblasts, 1.00E0 nM
[2] = /HDFNo unstimulated fibroblasts, 1.00E1 nM
[3] = /HDFNo unstimulated fibroblasts, 1.00E2 nM
[4] = /HDFNo unstimulated fibroblasts, 1.00E3 nM
[5] = /HDFNo unstimulated fibroblasts, 1.00E4 nM

`CN1c2ccc(-c3cncc(Cl)c3N3CCC4(CC3)CNC(=O)O4)cc2CS1(=O)=O` [CMPD2] gave a CCL2/MCP-1 (3C, 1.00E0 nM) of 0.00665, a CD54/ICAM-1 (3C, 1.00E0 nM) of -0.015 and a CD87/uPAR (3C, 1.00E0 nM) of -0.232. For the same compound, the CD106/VCAM-1 (3C, 1.00E0 nM) was 0.040, the CD141/Thrombomodulin (3C, 1.00E0 nM) was 0.035 and the “CD142/Tissue Factor” value (3C, 1.00E0 nM) was 0.086. It also gave a CXCL8/IL-8 (3C, 1.00E0 nM) of 0.001, a CXCL9/MIG (3C, 1.00E0 nM) of -0.002 and an HLA-DR (3C, 1.00E0 nM) of -0.059. For the same compound, the Proliferation (3C, 1.00E0 nM) was -0.0027, the SRB (3C, 1.00E0 nM) was -0.057 and the CCL2/MCP-1 (3C, 1.00E1 nM) was -0.088. For the same compound, the CD54/ICAM-1 (3C, 1.00E1 nM) was -0.034, the CD87/uPAR (3C, 1.00E1 nM) was -0.339 and the CD106/VCAM-1 (3C, 1.00E1 nM) was 0.048. The CD141/Thrombomodulin (3C, 1.00E1 nM) was 0.056, the “CD142/Tissue Factor” value (3C, 1.00E1 nM) was 0.130 and the CXCL8/IL-8 (3C, 1.00E1 nM) was -0.104. For the same compound, the CXCL9/MIG (3C, 1.00E1 nM) was -0.011, the HLA-DR (3C, 1.00E1 nM) was -0.129 and the Proliferation (3C, 1.00E1 nM) was -0.036. It also gave an SRB (3C, 1.00E1 nM) of -0.071, a CCL2/MCP-1 (3C, 1.00E2 nM) of -0.157 and a CD54/ICAM-1 (3C, 1.00E2 nM) of -0.046. The CD87/uPAR (3C, 1.00E2 nM) was -0.368, the CD106/VCAM-1 (3C, 1.00E2 nM) was 0.046 and the CD141/Thrombomodulin (3C, 1.00E2 nM) was 0.051. The “CD142/Tissue Factor” value (3C, 1.00E2 nM) was 0.120, the CXCL8/IL-8 (3C, 1.00E2 nM) was -0.212 and the CXCL9/MIG (3C, 1.00E2 nM) was -0.016. The HLA-DR (3C, 1.00E2 nM) was -0.138, the Proliferation (3C, 1.00E2 nM) was -0.098 and the SRB (3C, 1.00E2 nM) was -0.085. The CCL2/MCP-1 (3C, 1.00E3 nM) was -0.150, the CD54/ICAM-1 (3C, 1.00E3 nM) was -0.055 and the CD87/uPAR (3C, 1.00E3 nM) was -0.368. The CD106/VCAM-1 (3C, 1.00E3 nM) was 0.045, the CD141/Thrombomodulin (3C, 1.00E3 nM) was 0.055 and the “CD142/Tissue Factor” value (3C, 1.00E3 nM) was 0.116. For the same compound, the CXCL8/IL-8 (3C, 1.00E3 nM) was -0.275, the CXCL9/MIG (3C, 1.00E3 nM) was -0.019 and the HLA-DR (3C, 1.00E3 nM) was -0.153. It also gave a Proliferation (3C, 1.00E3 nM) of -0.074, an SRB (3C, 1.00E3 nM) of -0.078 and a CCL2/MCP-1 (3C, 1.00E4 nM) of -0.161. For the same compound, the CD54/ICAM-1 (3C, 1.00E4 nM) was -0.041, the CD87/uPAR (3C, 1.00E4 nM) was -0.370 and the CD106/VCAM-1 (3C, 1.00E4 nM) was 0.044. The CD141/Thrombomodulin (3C, 1.00E4 nM) was 0.020, the “CD142/Tissue Factor” value (3C, 1.00E4 nM) was 0.089 and the CXCL8/IL-8 (3C, 1.00E4 nM) was -0.273. The CXCL9/MIG (3C, 1.00E4 nM) was -0.019, the HLA-DR (3C, 1.00E4 nM) was -0.147 and the Proliferation (3C, 1.00E4 nM) was -0.089. The SRB (3C, 1.00E4 nM) was -0.086, the CCL2/MCP-1 (/HDF3CT, 1.00E0 nM) was -0.00225 and the CD54/ICAM-1 (/HDF3CT, 1.00E0 nM) was -0.030. It also gave a CD106/VCAM-1 (/HDF3CT, 1.00E0 nM) of 0.019, a CXCL8/IL-8 (/HDF3CT, 1.00E0 nM) of -0.027 and a CXCL9/MIG (/HDF3CT, 1.00E0 nM) of 0.019. For the same compound, the CXCL10/IP-10 (/HDF3CT, 1.00E0 nM) was 0.006, the “Collagen I” value (/HDF3CT, 1.00E0 nM) was -0.00072 and the M-CSF (/HDF3CT, 1.00E0 nM) was 0.017. For the same compound, the MMP-1 (/HDF3CT, 1.00E0 nM) was 0.072, the PAI-I (/HDF3CT, 1.00E0 nM) was 0.018 and the SRB (/HDF3CT, 1.00E0 nM) was 0.014. For the same compound, the TIMP-2 (/HDF3CT, 1.00E0 nM) was 0.034, the CCL2/MCP-1 (/HDF3CT, 1.00E1 nM) was -0.044 and the CD54/ICAM-1 (/HDF3CT, 1.00E1 nM) was -0.067. It also gave a CD106/VCAM-1 (/HDF3CT, 1.00E1 nM) of 0.019, a CXCL8/IL-8 (/HDF3CT, 1.00E1 nM) of -0.054 and a CXCL9/MIG (/HDF3CT, 1.00E1 nM) of 0.015. The CXCL10/IP-10 (/HDF3CT, 1.00E1 nM) was 0.022, the “Collagen I” value (/HDF3CT, 1.00E1 nM) was -0.038 and the M-CSF (/HDF3CT, 1.00E1 nM) was -0.031. The MMP-1 (/HDF3CT, 1.00E1 nM) was 0.112, the PAI-I (/HDF3CT, 1.00E1 nM) was -0.053 and the SRB (/HDF3CT, 1.00E1 nM) was -0.00569. It also gave a TIMP-2 (/HDF3CT, 1.00E1 nM) of 0.057, a CCL2/MCP-1 (/HDF3CT, 1.00E2 nM) of -0.108 and a CD54/ICAM-1 (/HDF3CT, 1.00E2 nM) of -0.073. The CD106/VCAM-1 (/HDF3CT, 1.00E2 nM) was 0.009, the CXCL8/IL-8 (/HDF3CT, 1.00E2 nM) was -0.154 and the CXCL9/MIG (/HDF3CT, 1.00E2 nM) was -0.031. The CXCL10/IP-10 (/HDF3CT, 1.00E2 nM) was 0.011, the “Collagen I” value (/HDF3CT, 1.00E2 nM) was -0.041 and the M-CSF (/HDF3CT, 1.00E2 nM) was -0.045. It also gave an MMP-1 (/HDF3CT, 1.00E2 nM) of 0.027, a PAI-I (/HDF3CT, 1.00E2 nM) of -0.092 and an SRB (/HDF3CT, 1.00E2 nM) of -0.00555. For the same compound, the TIMP-2 (/HDF3CT, 1.00E2 nM) was 0.013, the CCL2/MCP-1 (/HDF3CT, 1.00E3 nM) was -0.094 and the CD54/ICAM-1 (/HDF3CT, 1.00E3 nM) was -0.080. The CD106/VCAM-1 (/HDF3CT, 1.00E3 nM) was -0.001, the CXCL8/IL-8 (/HDF3CT, 1.00E3 nM) was -0.182 and the CXCL9/MIG (/HDF3CT, 1.00E3 nM) was -0.043. For the same compound, the CXCL10/IP-10 (/HDF3CT, 1.00E3 nM) was 0.00749, the “Collagen I” value (/HDF3CT, 1.00E3 nM) was -0.064 and the M-CSF (/HDF3CT, 1.00E3 nM) was -0.064. The MMP-1 (/HDF3CT, 1.00E3 nM) was 0.014, the PAI-I (/HDF3CT, 1.00E3 nM) was -0.119 and the SRB (/HDF3CT, 1.00E3 nM) was -0.020. It also gave a TIMP-2 (/HDF3CT, 1.00E3 nM) of 0.052, a CCL2/MCP-1 (/HDF3CT, 1.00E4 nM) of -0.114 and a CD54/ICAM-1 (/HDF3CT, 1.00E4 nM) of -0.089. The CD106/VCAM-1 (/HDF3CT, 1.00E4 nM) was 0.006, the CXCL8/IL-8 (/HDF3CT, 1.00E4 nM) was -0.206 and the CXCL9/MIG (/HDF3CT, 1.00E4 nM) was -0.053. The CXCL10/IP-10 (/HDF3CT, 1.00E4 nM) was 0.009, the “Collagen I” value (/HDF3CT, 1.00E4 nM) was -0.042 and the M-CSF (/HDF3CT, 1.00E4 nM) was -0.068. It also gave an MMP-1 (/HDF3CT, 1.00E4 nM) of 0.035, a PAI-I (/HDF3CT, 1.00E4 nM) of -0.129 and an SRB (/HDF3CT, 1.00E4 nM) of 0.00189. It also gave a TIMP-2 (/HDF3CT, 1.00E4 nM) of 0.072, a CXCL8/IL-8 [1] of 0.063 and a CXCL9/MIG [1] of 0.141. For the same compound, the CXCL10/IP-10 [1] was 0.082, the CXCL11/I-TAC [1] was 0.071 and the EGFR [1] was 0.035. For the same compound, the M-CSF [1] was 0.081, the MMP-1 [1] was 0.152 and the PAI-I [1] was 0.049. It also gave a Proliferation_72hr [1] of 0.007, an SRB [1] of 0.029 and a TIMP-1 [1] of 0.066. For the same compound, the TIMP-2 [1] was 0.143, the CXCL8/IL-8 [2] was -0.030 and the CXCL9/MIG [2] was 0.069. For the same compound, the CXCL10/IP-10 [2] was 0.062, the CXCL11/I-TAC [2] was 0.000639 and the EGFR [2] was 0.025. The M-CSF [2] was 0.039, the MMP-1 [2] was 0.095 and the PAI-I [2] was 0.00174. For the same compound, the Proliferation_72hr [2] was 0.026, the SRB [2] was -0.013 and the TIMP-1 [2] was 0.023. It also gave a TIMP-2 [2] of 0.114, a CXCL8/IL-8 [3] of 0.056 and a CXCL9/MIG [3] of 0.068. For the same compound, the CXCL10/IP-10 [3] was 0.052, the CXCL11/I-TAC [3] was -0.029 and the EGFR [3] was 0.009. It also gave a M-CSF [3] of 0.012, an MMP-1 [3] of 0.109 and a PAI-I [3] of 0.059. It also gave a Proliferation_72hr [3] of 0.043, an SRB [3] of -0.046 and a TIMP-1 [3] of 0.021. The TIMP-2 [3] was 0.081, the CXCL8/IL-8 [4] was -0.00424 and the CXCL9/MIG [4] was 0.019. The CXCL10/IP-10 [4] was 0.029, the CXCL11/I-TAC [4] was 0.022 and the EGFR [4] was 0.016. The M-CSF [4] was 0.038, the MMP-1 [4] was 0.108 and the PAI-I [4] was 0.005. For the same compound, the Proliferation_72hr [4] was 0.043, the SRB [4] was -0.011 and the TIMP-1 [4] was -0.038. For the same compound, the TIMP-2 [4] was 0.090, the CXCL8/IL-8 [5] was 0.043 and the CXCL9/MIG [5] was 0.044. For the same compound, the CXCL10/IP-10 [5] was 0.051, the CXCL11/I-TAC [5] was -0.015 and the EGFR [5] was 0.031. The M-CSF [5] was -0.007, the MMP-1 [5] was 0.080 and the PAI-I [5] was 0.026. For the same compound, the Proliferation_72hr [5] was 0.023, the SRB [5] was -0.018 and the TIMP-1 [5] was -0.039. For the same compound, the TIMP-2 [5] was 0.105, the CCL2/MCP-1 (/HDFNo, 1.00E0 nM) was 0.045 and the CD54/ICAM-1 (/HDFNo, 1.00E0 nM) was 0.099. The CD106/VCAM-1 (/HDFNo, 1.00E0 nM) was 0.066, the “Collagen I” value (/HDFNo, 1.00E0 nM) was 0.074 and the “Collagen III” value (/HDFNo, 1.00E0 nM) was 0.041. For the same compound, the CCL2/MCP-1 (/HDFNo, 1.00E1 nM) was 0.107, the CD54/ICAM-1 (/HDFNo, 1.00E1 nM) was 0.090 and the CD106/VCAM-1 (/HDFNo, 1.00E1 nM) was 0.050. The “Collagen I” value (/HDFNo, 1.00E1 nM) was 0.084, the “Collagen III” value (/HDFNo, 1.00E1 nM) was 0.042 and the CCL2/MCP-1 (/HDFNo, 1.00E2 nM) was 0.018. The CD54/ICAM-1 (/HDFNo, 1.00E2 nM) was 0.060, the CD106/VCAM-1 (/HDFNo, 1.00E2 nM) was 0.020 and the “Collagen I” value (/HDFNo, 1.00E2 nM) was 0.100. The “Collagen III” value (/HDFNo, 1.00E2 nM) was 0.061, the CCL2/MCP-1 (/HDFNo, 1.00E3 nM) was -0.027 and the CD54/ICAM-1 (/HDFNo, 1.00E3 nM) was 0.063. The CD106/VCAM-1 (/HDFNo, 1.00E3 nM) was 0.049 and the “Collagen I” value (/HDFNo, 1.00E3 nM) was 0.108.
